Structures are written as SMILES. Where a name gives a salt, the structure may show the parent alone.

The assay has as its target T1, human recombinant 6His-Nterm SHP2 full-length (Thr2-Arg593) (Homo sapiens, UniProt Q06124).
T1 construct: 6His-Nterm SHP2 full-length (Thr2-Arg593, R&D system); 6His (N); purchased R&D system
T1 sequence (Q06124 2-593): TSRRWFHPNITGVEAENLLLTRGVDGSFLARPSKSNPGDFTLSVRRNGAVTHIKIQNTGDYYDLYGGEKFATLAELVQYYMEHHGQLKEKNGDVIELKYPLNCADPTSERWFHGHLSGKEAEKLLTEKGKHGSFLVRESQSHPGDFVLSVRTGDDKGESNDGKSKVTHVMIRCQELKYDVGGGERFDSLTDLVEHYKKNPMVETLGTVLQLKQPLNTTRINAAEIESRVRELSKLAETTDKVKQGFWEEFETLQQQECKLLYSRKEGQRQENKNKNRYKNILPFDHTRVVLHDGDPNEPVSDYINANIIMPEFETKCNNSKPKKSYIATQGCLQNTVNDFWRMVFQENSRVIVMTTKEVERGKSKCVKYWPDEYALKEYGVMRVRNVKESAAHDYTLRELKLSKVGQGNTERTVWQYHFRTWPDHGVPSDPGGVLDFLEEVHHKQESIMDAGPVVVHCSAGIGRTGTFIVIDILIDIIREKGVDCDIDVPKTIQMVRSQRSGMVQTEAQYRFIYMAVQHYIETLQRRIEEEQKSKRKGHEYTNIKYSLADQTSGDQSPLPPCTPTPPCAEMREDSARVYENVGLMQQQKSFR
The assay is described as follows: SHP2 Phosphatase Assay (DiFMUP fluorescence). The class given is biochemical. The conditions noted are these: SHP2 0.2 nM pre-incubated with 100 nM bi-phosphorylated activating peptide; compound 1000-0.05 nM, 30 min pre-incubation; DiFMUP 20 µM, 45 min, room temperature; 10-concentration dose-response. On the procedure:
Inhibition of SHP2 phosphatase activity was evaluated using human recombinant 6His-Nterm SHP2 full-length (Thr2-Arg593, R&D system), NsCs bi-phosphorylated activating peptide (NH2-LN(pY)AQLWHA(PEG8)LTI(pY)ATIRRF-Amide.acetate, Thermofischer Scientific) and DiFMUP as surrogate phosphatase substrate (Molecular Probes). All reactions were performed at room temperature in 384-well black polystyrene non-binding plate (Corning) with the assay buffer (50 mM HEPES-NaOH pH 7.2, 100 mM NaCl, 0.5 mM EDTA, 0.001% Brij35 including 0.02% BSA and 1 mM DTT added extemporaneously). SHP2 was pre-incubated at least 10 min with the activating peptide (0.2 nM and 100 nM, respectively). 10 µL of this mixture was added to the assay plate, that already contained 15 nL of the compound (1000-0.05 nM). After 30 min pre-incubation, the enzymatic reaction was initiated by the addition of 5 µL DiFMUP in assay buffer without BSA (20 µM). The reaction was stopped by the addition of 15 µL sodium pervanadate solution (100 µM) after 45 min incubation. The fluorescence signal was measured at excitation and emission wavelengths of 350 nm and 450 nm, respectively, using a Pherastar instrument (BMG-LabTech). Percentage of inhibition […] were calculated from the fluorescence signal at 450 nm of the positive and negative control using the following formula: I% = ((signal Max−signal Sample)/(signal Max−signal Min control)) × 100 [formula]
Positive control (Max): corresponds to the maximum fluorescence signal obtained in the presence of 15 nL DMSO replacing the inhibitor in the pre-incubation step.
Negative control (Min): corresponds to the minimum signal obtained in the presence of 1 µM of RMC-4550, the structure of which is shown below: [drawing 464]
The IC50 were then calculated from a dose-response curve of 10 concentrations of tested compound using the 4-parameter logistic model: I% = A + (C)/(1 + exp(−B×log(X)−M)) [formula]
The parameters A and (A+C) are the lower and upper limits, B is the slope of the curve at the inflexion point, M parameter is the logarithm of the abscissa at the inflexion point, and X is the concentration of compound.
As a reminder, the IC50 is the concentration needed to halve the response being measured. Turning to `Cc1nc(N2CCC3(CC2)Cc2ncccc2[C@H]3N)c2ccnn2c1-c1cccc2c1ccn2C` [Compound 182, (5S)-1'-[6-methyl-7-(1-methylindol-4-yl)pyrazolo[1,5-a]pyrazin-4-yl]spiro[5,7-dihydrocyclopenta[b]pyridine-6,4'-piperidine]-5-amine], the IC50 turned out to be 23 nM.
To `COc1ccc2c(n1)[C@H](N)C1(CCN(c3nc(C)c(-c4cccc(F)c4Cl)n4nccc34)CC1)C2` [Compound 216, (7R)-1'-[7-(2-chloro-3-fluoro-phenyl)-6-methyl-pyrazolo[1,5-a]pyrazin-4-yl]-2-methoxy-spiro[5,7-dihydrocyclopenta[b]pyridine-6,4'-piperidine]-7-amine] belongs 685 nM.
On to `Cc1nc(N2CCC3(CC2)Oc2ccccc2[C@H]3N)c2ccnn2c1-c1ccc(F)c2cc[nH]c12` [Compound 18, (3R)-1'-[7-(4-fluoro-1H-indol-7-yl)-6-methyl-pyrazolo[1,5-a]pyrazin-4-yl] spiro [3H-benzofuran-2,4'-piperidine] -3 - amine], for which the IC50 is 132 nM.
To `Cc1nc(N2CCC3(CC2)Cc2ncccc2[C@H]3N)c2ccnn2c1-c1c(F)cccc1F` [Compound 115, (5S)-1'-[7-(2,6-difluorophenyl)-6-methyl-pyrazolo[1,5-a]pyrazin-4-yl]spiro[5,7-dihydrocyclopenta[b]pyridine-6,4'-piperidine]-5-amine] belongs 11 nM; to `Cc1nc(N2CCC3(CC2)Cc2ccc(C#N)cc2[C@H]3N)c2ccnn2c1-c1cnn(C)c1C` (single isomer, unassigned) [Compound 211], 8 nM; to `CCc1nccc(-c2c(C)nc(N3CCC4(CC3)Cc3ncccc3[C@H]4N)c3ccnn23)c1Cl` [Compound 42, (5S)-1'-[7-(3chloro-2-ethyl-4-pyridyl)-6-methyl-pyrazolo[1,5-a]pyrazin-4-yl]spiro[5,7-dihydrocyclopenta[b]pyridine-6,4'-piperidine]-5-amine], 3 nM.
Take `Cc1nc(N2CCC3(CC2)Cc2ncccc2[C@H]3N)c2ccnn2c1-c1ccc2ncccc2c1F` [Compound 30, (5S)-1'-[7-(5-fluoro-6-quinolyl)-6-methyl-pyrazolo [1 ,5-a]pyrazin-4-yl]spiro[5,7-dihydrocyclopenta[b]pyridine-6,4'-piperidine] -5-amine formate]: the IC50 is 17 nM.
On to `Cc1nc(N2CCC3(CC2)Cc2ncc(F)cc2[C@H]3N)c2ccnn2c1-c1ccc2nccnc2c1Cl` [Compound 79, (5S)-1'-[7-(5-chloroquinoxalin-6-yl)-6-methyl-pyrazolo[1,5-a]pyrazin-4-yl]-3-fluoro-spiro[5,7-dihydrocyclopenta[b]pyridine-6,4'-piperidine]-5-amine hydrochloride], for which the IC50 is 10 nM.
To `Cc1nc(N2CCC3(CC2)Cc2ncccc2[C@H]3N)c2ccnn2c1-c1ccc(F)cc1F` [Compound 193, (5S)-1'-[7-(2,4-difluorophenyl)-6-methyl-pyrazolo[1,5-a]pyrazin-4-yl]spiro[5,7-dihydrocyclopenta[b]pyridine-6,4'-piperidine]-5-amine] belongs 3 nM; to `Cc1nc(N2CCC3(CC2)Cc2cc(F)ccc2[C@H]3N)c2ccnn2c1-c1cnn(C)c1C` [Compound 101, (1S)-1'-[7-(1,5-dimethylpyrazol-4-yl)-6-methyl-pyrazolo[1,5-a]pyrazin-4-yl]-5-fluoro-spiro[indane-2,4'-piperidine]-1-amine hydrochloride], 15 nM; to `Cc1nc(N2CCC3(CC2)Cc2ncsc2[C@H]3N)c2ccnn2c1-c1ccccc1` [Compound 74, (6S)-1'-(6-methyl-7-phenyl-pyrazolo [1,5-a]pyrazin-4-yl)spiro[4,6-dihydrocyclopenta[d]thiazole-5,4'-piperidine] -6-amine hydrochloride], 5 nM.
To `Cc1nccc(-c2c(C)nc(N3CCC4(CC3)Cc3ccncc3[C@H]4N)c3ccnn23)c1Cl` [Compound 139, (7S)-1'-[7-(3-chloro-2-methyl-4-pyridyl)-6-methyl-pyrazolo[1,5-a]pyrazin-4-yl]spiro[5,7-dihydrocyclopenta[c]pyridine-6,4'-piperidine]-7-amine] belongs 4 nM; to `COc1cc2c(cn1)[C@@H](N)C1(CCN(c3nc(C)c(-c4ccnc(C)c4Cl)n4nccc34)CC1)C2` [Compound 121, (7S)-1'-[7-(3-chloro-2-methyl-4-pyridyl)-6-methyl-pyrazolo[1,5-a]pyrazin-4-yl]-3-methoxy-spiro [5,7-dihydrocyclopenta[c]pyridine-6,4'-piperidine]-7-amine], 8 nM.
To `COc1ccc2c(c1)[C@@H](N)C1(CCN(c3nc(C)c(-c4cnn(C)c4C)n4nccc34)CC1)C2` [Compound 120, (1S)-1'-[7-(1,5-dimethylpyrazol-4-yl)-6-methyl-pyrazolo[1,5-a]pyrazin-4-yl]-6-methoxy-spiro[indane-2,4'-piperidine]-1-amine hydrochloride] belongs 11 nM; to `Cc1nc2c(s1)[C@@H](N)C1(CCN(c3nc(C)c(-c4ccc5nccnc5c4Cl)n4nccc34)CC1)C2` [Compound 81, (6S)-1'-[7-(5-chloroquinoxalin-6-yl)-6-methyl-pyrazolo[1,5-a]pyrazin-4-yl]-2-methyl-spiro [4,6-dihydrocyclopenta[d]thiazole-5,4'-piperidine]-6-amine hydrochloride], 4 nM; to `COc1ccc2c(c1)[C@@H](N)C1(CCN(c3nc(C)c(-c4cnn(C)c4Cl)n4nccc34)CC1)C2` [Compound 126, (1S)-1'-[7-(5-chloro-1-methyl-pyrazol-4-yl)-6-methyl-pyrazolo[1,5-a]pyrazin-4-yl] -6-methoxy-spiro[indane-2,4'-piperidine]-1-amine hydrochloride], 4 nM.
For the compound `Cc1nc(N2CCC3(CC2)Cc2ncccc2[C@H]3N)c2ccnn2c1-c1cc(C(=O)N(C)C)ccc1F` [Compound 172, 4-fluoro-N,N-dimethyl-3-[6-methyl-4-[(5S)-5-aminospiro[5,7-dihydrocyclopenta[b]pyridine-6,4'-piperidine]-1'-yl]pyrazolo[1,5-a]pyrazin-7-yl]benzamide], the IC50 is greater than 1000 nM.
Under `COc1cccc2c1CC1(CCN(c3nc(C)c(-c4ccccc4F)n4nccc34)CC1)[C@@H]2N` [Compound 109, (1S)-1'-[7-(2-fluorophenyl)-6-methyl-pyrazolo[1,5-a]pyrazin-4-yl] -4-methoxy-spiro[indane-2,4'-piperidine]-1-amine] stands 10 nM.
As to `COc1nc2c(s1)[C@@H](N)C1(CCN(c3nc(C)c(-c4ccnc(C)c4Cl)n4nccc34)CC1)C2` [Compound 219, (6S)-1'-[7-(3-chloro-2-methyl-4-pyridyl)-6-methyl-pyrazolo[1,5-a]pyrazin-4-yl]-2-methoxy-spiro[4,6-dihydrocyclopenta[d]thiazole-5,4'-piperidine]-6-amine], the IC50 was found to be 5 nM.
For `Cc1nc(N2CCC3(CC2)Cc2ncccc2[C@H]3N)c2ccnn2c1-c1cccc(F)c1Cl` [Compound 2, (5S)-1'-(7-(2-chloro-3-fluorophenyl)-6-methylpyrazolo[1,5-a]pyrazin-4-yl)-5,7-dihydrospiro[cyclopenta[b]pyridine-6,4'-piperidin]-5-amine], the IC50 turned out to be 6 nM.
For the compound `Cc1cc2c(cn1)CC1(CCN(c3nc(C)c(-c4cccc(C#N)c4F)n4nccc34)CC1)[C@@H]2N` [Compound 117, 3-[4-[(5S)-5-amino-3-methyl-spiro[5,7-dihydrocyclopenta[c]pyridine-6,4'-piperidine]-1'-yl]-6-methyl-pyrazolo[1,5-a]pyrazin-7-yl]-2-fluoro-benzonitrile hydrochloride], the IC50 is 10 nM.

Values taken from patent EP4227307A1 (Genzyme Corporation, priority 2022, dated 2023).
